Experimental data as given in patent US12052991B2, “Substituted pyridinyloxybenzenes and salts thereof and use thereof as herbicidal agents” (Bayer Aktiengesellschaft, priority 2018, dated 2024).

What was measured:
Format in all cases: in vivo
[1] = system: Digitaria sanguinalis (DIGSA); assay: Herbicidal post-emergence action (Table B10); conditions: visual rating about 3 weeks after treatment, 100% = plants have died, 0% = like control plants
Method: (§1) Seeds of mono- and dicotyledonous weed plants were placed in plastic pots in sandy loam soil (doubly sown with in each case one species of mono- or dicotyledonous weed plants per pot), covered with soil and cultivated in a greenhouse under controlled growth conditions. 2 to 3 weeks after sowing, the test plants were treated at the one-leaf stage. The compounds of the invention, formulated in the form of wettable powders (WP) or as emulsion concentrates (EC), were applied onto the green parts of the plants as aqueous suspension or emulsion with addition of 0.5% additive at a water application rate of 600 liters per hectare (converted). After the test plants had been kept in the greenhouse under optimum growth conditions for about 3 weeks, the activity of the preparations was rated visually in comparison to untreated controls. For example, 100% activity=the plants have died, 0% activity=like control plants. Tables B1 to B12 below show the effects of selected compounds of the general formula (I) according to Table 1 on various harmful plants and an application rate corresponding to 1280 or 320 g/ha, which were obtained by the experimental procedure mentioned above.

Veronica persica (VERPE) [2] = assay: Herbicidal pre-emergence action, test C (Table C12); conditions: visual scoring vs untreated controls
How it was run: (§2)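 Visual scoring after about 3 weeks in the greenhouse gave % activity relative to untreated controls, 100% meaning plants died. Compounds, as WP or EC with 0.5% additive, had been applied to covering soil at 1280 or 320 g/ha in 600 L/ha water.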

[3] = system: Amaranthus retroflexus (AMARE); assay: Herbicidal post-emergence action (Table B6); conditions: visual rating about 3 weeks after treatment, 100% = plants have died, 0% = like control plants
How it was run: (§3)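 Post-emergence spray, one-leaf stage (2–3 wk after sowing), sandy loam, greenhouse. WP/EC in water + 0.5% additive, 600 L/ha, 1280 or 320 g/ha. Visual % activity vs untreated after ~3 wk (0% = like control, 100% = plants dead).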

[4] = system: Alopecurus myosuroides (ALOMY); assay: Herbicidal pre-emergence action, test C (Table C9); conditions: visual scoring after about 3 weeks, 100% = plants have died, 0% = like control plants
Source text: (§4) Seeds of mono- and dicotyledonous weed plants were placed in plastic pots in sandy loam soil (doubly sown with one species each of mono- or dicotyledonous weed plants per pot) and covered with soil. The compounds of the invention, formulated in the form of wettable powders (WP) or as emulsion concentrates (EC), were then applied onto the surface of the covering soil as aqueous suspension or emulsion with addition of 0.5% additive at a water application rate of 600 liters per hectare (converted). After the treatment, the pots were placed in a greenhouse and kept under good growth conditions for the test plants. After about 3 weeks, the effect of the preparations was scored visually in comparison with untreated controls as percentages. For example, 100% activity=the plants have died, 0% activity=like control plants. Tables C1 to C12 below show the effects of selected compounds of the general formula (I) according to Table 1 on various harmful plants and an application rate corresponding to 1280 or 320 g/ha, which were obtained by the experimental procedure mentioned above.

Poa annua (POAAN) [5] = assay: Herbicidal post-emergence action (Table B3); conditions: rated visually after about 3 weeks, 100% = plants have died, 0% = like control plants
How it was run: as §3

[6] = system: harmful plants ABUTH, AMARE, ECHCG, LOLRI, MATIN, POAAN, SETVI, STEME, ALOMY, DIGSA, KCHSC and VERPE; assay: Herbicidal post-emergence action, summary of Tables B1-B12; conditions: application rate of 1280 or 320 g of active ingredient per hectare; summary in words
How it was run: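 Activity scored by eye roughly 3 weeks post-treatment against untreated plants, from 0% (no effect) to 100% (plants dead). Application rates were 1280 or 320 g/ha, as aqueous WP/EC spray plus 0.5% additive at 600 L/ha, onto one-leaf-stage weeds grown 2–3 weeks in sandy loam.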

[7] = system: harmful plants ABUTH, AMARE, ECHCG, LOLRI, MATIN, POAAN, SETVI, STEME, ALOMY, DIGSA, KCHSC and VERPE; assay: Herbicidal pre-emergence action (test C), summary of Tables C1-C12; conditions: application rate of 1280 or 320 g of active ingredient per hectare; summary in words
How it was run: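 Visual % damage versus untreated plants (0% = like control, 100% = died) was scored after about 3 weeks in the greenhouse. Before emergence, seeds sown in sandy loam got a soil-surface spray of compound as WP or EC plus 0.5% additive, using 600 L/ha water at rates of 1280 or 320 g/ha.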

Lolium rigidum (LOLRI) = assay: Herbicidal pre-emergence action, test C (Table C2); conditions: dosage 1280 g/ha; visual scoring after about 3 weeks; 100% = plants have died, 0% = like control plants
Source text: as §4

Poa annua (POAAN) [8] = assay: Herbicidal pre-emergence action, test C (Table C3); conditions: visual scoring after about 3 weeks, 100% = plants have died, 0% = like control plants
How it was run: as §2

[9] = system: Abutilon theophrasti (ABUTH); assay: Herbicidal pre-emergence action, test C (Table C5); conditions: visual scoring after about 3 weeks, 100% = plants have died, 0% = like control plants
How it was run: as §2

Stellaria media (STEME) [10] = assay: Herbicidal pre-emergence action, test C (Table C8); conditions: visual scoring after about 3 weeks, 100% = plants have died, 0% = like control plants
How it was run: as §2

[11] = system: Alopecurus myosuroides (ALOMY); assay: Herbicidal post-emergence action (Table B9); conditions: rated visually after about 3 weeks, 100% = plants have died, 0% = like control plants
Method: as §1

[12] = system: Echinochloa crus-galli (ECHCG); assay: Herbicidal pre-emergence action, test C (Table C1); conditions: dosage 1280 g/ha; visual scoring after about 3 weeks; 100% = plants have died, 0% = like control plants
Source text: as §4

[13] = system: Digitaria sanguinalis (DIGSA); assay: Herbicidal pre-emergence action, test C (Table C10); conditions: visual scoring after about 3 weeks, 100% = plants have died, 0% = like control plants
How it was run: as §2

[14] = system: Amaranthus retroflexus (AMARE); assay: Herbicidal pre-emergence action, test C (Table C6); conditions: visual scoring after about 3 weeks, 100% = plants have died, 0% = like control plants
How it was run: as §2

Setaria viridis (SETVI) = assay: Herbicidal pre-emergence action, test C (Table C4); conditions: visual scoring after about 3 weeks, 100% = plants have died, 0% = like control plants
How it was run: as §2

Bassia scoparia (KCHSC) [15] = assay: Herbicidal post-emergence action (Table B11); conditions: visual rating about 3 weeks after treatment, 100% = plants have died, 0% = like control plants
How it was run: as §3

[16] = system: Echinochloa crus-galli (ECHCG); assay: Herbicidal post-emergence action (Table B1); conditions: 1280 g/ha; rated visually after about 3 weeks; 100% = plants have died, 0% = like control plants
Method: as §1

[17] = system: Abutilon theophrasti (ABUTH); assay: Herbicidal post-emergence action (Table B5); conditions: rated visually after about 3 weeks, 100% = plants have died, 0% = like control plants
How it was run: as §3

Stellaria media (STEME) [18] = assay: Herbicidal post-emergence action (Table B8); conditions: visual rating about 3 weeks after treatment, 100% = plants have died, 0% = like control plants
How it was run: as §3

[19] = system: Matricaria inodora (MATIN); assay: Herbicidal pre-emergence action, test C (Table C7); conditions: visual scoring after about 3 weeks, 100% = plants have died, 0% = like control plants
How it was run: as §2

Veronica persica (VERPE) [20] = assay: Herbicidal post-emergence action (Table B12); conditions: visual rating about 3 weeks after treatment, 100% = plants have died, 0% = like control plants
How it was run: as §3

Bassia scoparia (KCHSC) [21] = assay: Herbicidal pre-emergence action, test C (Table C11); conditions: dosage 1280 g/ha, visual scoring vs untreated controls
Source text: as §4

| SMILES | Pre-emergence action against Veronica persica (VERPE) (Veronica persica (VERPE) [2]; dosage 1280 g/ha) [%] | Post-emergence action against Amaranthus retroflexus (AMARE) ([3]; dosage 1280 g/ha) [%] | Post-emergence action against Poa annua (POAAN) (Poa annua (POAAN) [5]; 320 g/ha) [%] | Post-emergence action against Poa annua (POAAN) (Poa annua (POAAN) [5]; 1280 g/ha) [%] | herbicidal activity against the harmful plants of Tables B1-B12 in post-emergence treatment [6] | herbicidal activity against the harmful plants of Tables C1-C12 in pre-emergence treatment [7] | Pre-emergence action against Poa annua (POAAN) (Poa annua (POAAN) [8]; dosage 320 g/ha) [%] | Pre-emergence action against Poa annua (POAAN) (Poa annua (POAAN) [8]; dosage 1280 g/ha) [%] | Pre-emergence action against Stellaria media (STEME) (Stellaria media (STEME) [10]; dosage 1280 g/ha) [%] | Pre-emergence action against Digitaria sanguinalis (DIGSA) ([13]; dosage 1280 g/ha) [%] | Pre-emergence action against Amaranthus retroflexus (AMARE) ([14]; dosage 320 g/ha) [%] | Pre-emergence action against Amaranthus retroflexus (AMARE) ([14]; dosage 1280 g/ha) [%] | Pre-emergence action against Setaria viridis (SETVI) (Setaria viridis (SETVI); dosage 1280 g/ha) [%] | Post-emergence action against Bassia scoparia (KCHSC) (Bassia scoparia (KCHSC) [15]; dosage 1280 g/ha) [%] | Post-emergence action against Abutilon theophrasti (ABUTH) ([17]; 320 g/ha) [%] | Post-emergence action against Abutilon theophrasti (ABUTH) ([17]; 1280 g/ha) [%] | Post-emergence action against Stellaria media (STEME) (Stellaria media (STEME) [18]; dosage 320 g/ha) [%] | Post-emergence action against Stellaria media (STEME) (Stellaria media (STEME) [18]; dosage 1280 g/ha) [%] | Post-emergence action against Veronica persica (VERPE) (Veronica persica (VERPE) [20]; dosage 320 g/ha) [%] | Post-emergence action against Veronica persica (VERPE) (Veronica persica (VERPE) [20]; dosage 1280 g/ha) [%] | other results |
| --- | --- | --- | --- | --- | --- | --- | --- | --- | --- | --- | --- | --- | --- | --- | --- | --- | --- | --- | --- | --- | --- |
| Cc1cccc(Oc2ncc(Cl)cc2F)c1-c1cc(C(F)F)on1 [Example 1-10] | 100 | 100 | 100 | 100 | very good herbicidal activity | very good herbicidal activity | 100 | 100 | 100 | 100 | 100 | 100 | 100 | 100 | 90 | 100 | 100 | 100 | 100 | 100 | Post-emergence action against Digitaria sanguinalis (DIGSA) ([1]; dosage 320 g/ha): 100%; Post-emergence action against Digitaria sanguinalis (DIGSA) ([1]; dosage 1280 g/ha): 100%; Pre-emergence action against Veronica persica (VERPE) (Veronica persica (VERPE) [2]; dosage 320 g/ha): 100%; Pre-emergence action against Alopecurus myosuroides (ALOMY) ([4]; dosage 320 g/ha): 100%; Pre-emergence action against Alopecurus myosuroides (ALOMY) ([4]; dosage 1280 g/ha): 100%; Pre-emergence action against Lolium rigidum (LOLRI) (Lolium rigidum (LOLRI)): 90%; Pre-emergence action against Abutilon theophrasti (ABUTH) ([9]; dosage 320 g/ha): 100%; Pre-emergence action against Abutilon theophrasti (ABUTH) ([9]; dosage 1280 g/ha): 100%; Pre-emergence action against Stellaria media (STEME) (Stellaria media (STEME) [10]; dosage 320 g/ha): 100%; Post-emergence action against Alopecurus myosuroides (ALOMY) ([11]; 320 g/ha): 100%; Post-emergence action against Alopecurus myosuroides (ALOMY) ([11]; 1280 g/ha): 100%; Pre-emergence action against Echinochloa crus-galli (ECHCG) [12]: 90%; Pre-emergence action against Digitaria sanguinalis (DIGSA) ([13]; dosage 320 g/ha): 100%; Pre-emergence action against Setaria viridis (SETVI) (Setaria viridis (SETVI); dosage 320 g/ha): 100%; Post-emergence action against Echinochloa crus-galli (ECHCG) [16]: 100%; Pre-emergence action against Matricaria inodora (MATIN) ([19]; dosage 320 g/ha): 100%; Pre-emergence action against Matricaria inodora (MATIN) ([19]; dosage 1280 g/ha): 100% |
| Cn1nc(-c2c(F)cccc2Oc2ncc(Cl)cc2F)cc1C(F)F [Example 1-61] | 100 | 100 | 100 | 100 | very good herbicidal activity | very good herbicidal activity | 90 | 100 | 100 | 100 | 100 | 100 | 90 | 100 | 100 | 100 | 100 | 100 | 100 | 100 | Post-emergence action against Amaranthus retroflexus (AMARE) ([3]; dosage 320 g/ha): 100%; Pre-emergence action against Abutilon theophrasti (ABUTH) ([9]; dosage 1280 g/ha): 100%; Pre-emergence action against Bassia scoparia (KCHSC) (Bassia scoparia (KCHSC) [21]): 100%; Post-emergence action against Bassia scoparia (KCHSC) (Bassia scoparia (KCHSC) [15]; dosage 320 g/ha): 100% |
| Fc1cccnc1Oc1ccccc1-c1cc(C(F)F)no1 [Example 1-47] | 100 | 100 | 100 | 100 | very good herbicidal activity | very good herbicidal activity | 100 | 100 | 100 | 90 | 100 | 100 | 90 | 90 | 90 | 100 | 100 | 100 | 100 | 100 | Pre-emergence action against Veronica persica (VERPE) (Veronica persica (VERPE) [2]; dosage 320 g/ha): 90%; Post-emergence action against Amaranthus retroflexus (AMARE) ([3]; dosage 320 g/ha): 90%; Pre-emergence action against Stellaria media (STEME) (Stellaria media (STEME) [10]; dosage 320 g/ha): 100%; Pre-emergence action against Bassia scoparia (KCHSC) (Bassia scoparia (KCHSC) [21]): 90%; Post-emergence action against Bassia scoparia (KCHSC) (Bassia scoparia (KCHSC) [15]; dosage 320 g/ha): 90% |
